Earlier results on 5 compounds are cited in patent US20230110485A1, “MULTI-LAYER PARTICLES OF FUNCTIONAL INGREDIENTS AND METHODS OF MAKING THE SAME” (Nulixir Inc., priority 2021, published 2023).

The conditions of data set [1]: water and n-octanol; categorization at pH = 7 unless stated otherwise.
Data set [2] has as its system many strains of fungi.

By logP is commonly meant a log measure of how a compound divides between an organic and an aqueous phase. In the case of `COc1cc(/C=C/c2ccccc2)oc(=O)c1` [5,6-dehydrokawain], the logP in data set [1] was roughly 2.9.
Take `COc1cc2c(c(OC)c1OC)-c1c(cc(OC)c(OC)c1OC)C[C@](C)(O)[C@@H](C)C2` [schisandrol A]: the lipophilicity (logP) in data set [1] is recorded as roughly 3.4.
In the case of `COc1cc2c(c(OC)c1OC)-c1c(cc3c(c1OC)OCO3)CC(C)C(C)C2` (single isomer, unassigned; (-)) [(-)-schisandrin B], in data set [1], the logP is reported as roughly 4.
On to (-)-schisandrin C, for which the logP in data set [1] is given as roughly 3.5.
Turning to `O=CC=Cc1ccccc1` [Cinnamaldehyde], in data set [2], the “inhibitory activity against fungi” value was “strong inhibitory activity”.
